Assay results published in PubChem BioAssay AID179 (DTP/NCI, 2004).
The source made the active and inactive calls.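 How the source made its calls: active means compounds giving half or more protection of infected cells from virus-caused growth loss, again on retest; inactive means the rest.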

Test system: CEM cells HIV-1 protection, formazan growth assay
Experiment: NCI AIDS Antiviral Assay
Conditions: for IC50: measured here: growth of uninfected CEM cells
How it was run: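 Five concentrations of each compound were applied to infected and uninfected human CEM cells. Protection from HIV-1 was judged from growth measured with a soluble formazan assay.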

Structure (SMILES) | EC50 [µM] | IC50 [µM] | outcome
CCOC(=O)CCN1C(=O)c2c(NC(=O)C(=O)O)cccc2S1(=O)=O | > 200 | > 200 | –
ON=C1CCC(c2ccccc2)CC1 (stereo not given) | – | – | inactive
CC(=O)OC(C#N)CC(C)(C)/[N+]([O-])=[N+](\[O-])C(C)(C)CC(C#N)OC(C)=O (stereo not given) | > 20 | 3.63 | –
O/N=C(/Cc1ccccc1)CC(O)(C(F)(F)F)C(F)(F)F | > 200 | 70.8 | –
COc1ccc(C(=C2C(=O)N(c3ccccc3)C(=O)C2=C(C)C)c2ccc(OC)cc2)cc1 | > 200 | 3.39 | –
O=c1ccc2c(cc3ccc4cccc5ccc2c3c45)o1 | – | – | inactive
N#CCCN(CCC#N)c1ccc(/C=C2\N=C(c3ccccc3)N(NC(=O)c3ccncc3)C2=O)cc1 | > 200 | 191 | –
CC(=O)OCC(OC(C)=O)C(OC(C)=O)C(OC(C)=O)C(/C=N\Nc1nc2ccccc2c(=O)[nH]1)OC(C)=O (stereo not given) | > 200 | > 200 | –
CCOc1ccc(C(CN2CCOCC2)C(C)=O)cc1OC (stereo not given) | > 724 | 1.95 | –
COc1ccc(N=Nc2ccc3oc(=O)c(C(=O)Nc4ccccc4)cc3c2)cc1 | > 200 | 33.1 | –
COC(=O)C1=C(c2ccccc2)ON2C(C)(C)COC12C (stereo not given) | > 200 | > 200 | –
Cc1cs/c(=N\C(P(=O)(O)O)P(=O)(O)O)n1C | > 100 | > 100 | –
COC(=O)/C(=C(\C)C=O)N1C(=O)C(NC(=O)c2ccccc2)C1SSc1nc2ccccc2s1 (stereo not given) | > 200 | 12.9 | –
O=C(O)C1(C(=O)O)CC23CCC2(COC3)C1 (stereo not given) | – | – | inactive
CC(CC(C)[C@H]1CCC2[C@H]3C(CC[C@@]21C)[C@@]1(C)CCC(O)C[C@H]1C[C@@H]3O)C(=O)O (stereo not given in full) | – | – | inactive
CCOC(=O)c1cc2c3c(cc(OC)c2[nH]1)N(C(=O)OCC)CC3 | > 100 | > 100 | –
C=C1C(=O)O[C@H]2C/C(C=O)=C\[C@H]3O[C@H]3/C(COC(=O)C(C)C)=C/CC12 (stereo not given in full) | > 200 | 1.62 | –
O=C1CC(c2ccsc2)n2cccc21 (stereo not given) | 186 | > 200 | –

Structure (SMILES) | EC50 [µM] | IC50 [µM] | outcome
C=Cc1c2[n-]c(c1C)/C=c1\[n-]/c(c(C)c1C=C)=C\c1[n-]c(c(CCC(=O)O)c1C)/C=c1\[n-]/c(c(C)c1CCC(=O)O)=C\2.[Co] | > 74.1 | > 74.1 | –
Cn1cccc1/C=C/c1cc(Br)c(/C=C/c2cccn2C)cc1Br | – | – | inactive
C/C(=N\NC(=O)c1ccncc1)c1ccccc1F | > 977 | 617 | –
Nc1c(S(=O)(=O)O)cc(Nc2ccc(S(=O)(=O)O)c(Nc3nc(Cl)nc(Cl)n3)c2)c2c1C(=O)c1ccccc1C2=O | > 200 | > 200 | –
Cn1c(=O)cc2[nH]c3ccccc3n2c1=O | > 63.1 | > 63.1 | –
N#Cc1c(N)oc2cc3c(C#N)c(N)oc3cc12 | – | – | inactive
N=c1c2c(C(N)=O)cn(C3OC(CO)C(O)C3O)c2ncn1O (stereo not given) | > 0.2 | 0.191 | –
CC(=O)NC(CC(C)C(=O)O)(C(=O)O)C(=O)O (stereo not given) | > 200 | > 200 | –
COC(=O)CCc1c(Cc2ccc[nH]2)[nH]c(C(=O)OCc2ccccc2)c1C | > 200 | 30.9 | –
O=C1c2ccccc2C(=O)c2sc(Nc3cc(Cl)ccc3Cl)nc21 | > 200 | 10.5 | –
CC(C)(C)OP(O)(=S)OC(C)(C)C | > 200 | > 200 | –
Nc1nnnn1-c1ccccc1 | > 200 | > 200 | –
O=C1O/C(=C2\OCc3ccccc32)c2ccccc21 | > 151 | > 151 | –
O=C1CNc2cc(N3CCN(c4ccccc4)CC3)ccc2N1 | > 200 | 25.1 | –
Nc1nc(NNc2ccc(Cl)c(Cl)c2)cc(=O)[nH]1 | > 200 | 49 | –
CCN1CCN(c2ccc(Nc3ccnc4ccc5nn(C)nc5c34)cc2)CC1 | > 18.6 | 7.24 | –
COC(=O)[C@@H]1C[C@H]([Se]c2ccccc2)CN1S(=O)(=O)c1ccc(C)cc1 | – | – | inactive
COC(=O)CCc1cccnc1/C=N/O | > 1200 | 126 | –
